One test addresses T1, human GLP1R (Homo sapiens, UniProt P43220).
T1 construct: expressed in transfected cells; growth medium holds Blasticidin and Hygromycin
Briefly: cAMP activity assay at the GLP-1 receptor (GLP1R). Type of test: cell-based. The essentials:
(§1)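 Peptides serially diluted from DMSO (10 points) and added to frozen-stock cells bearing human GLP1R (10,000 cells/well) or GCGR (30,000 cells/well), 1 h at RT, dark. EC50 by four-parameter logistic fit of HitHunter cAMPXS luminescence, read following overnight RT incubation.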

For a further test, the target named is T2, human GCGR (Homo sapiens, UniProt P47871).
T2 construct: expressed in transfected cells; growth medium holds Blasticidin and Hygromycin
Kind of test: cAMP activity assay at the Glucagon receptor (GCGR). Type of test: cell-based. The following applies: for hGCGR/hGLP1R (hTone): ratio of GCGR EC50 to GLP1R EC50. The essentials:
as §1

[1] abbreviates: summary statement: EC50 at each of the glucagon and GLP-1 receptors, read-out: EC50 at the GLP-1 receptor.
[2] abbreviates: summary statement: EC50 at each of the glucagon and GLP-1 receptors, read-out: EC50 at the glucagon receptor.
Where [3] appears, read: cells expressing human GCGR, cAMP production, buffer with or without 20% human serum (not stated which), read-out: GCGR EC50 human.
Where [4] appears, read: cells expressing human GLP1R, cAMP production, buffer with or without 20% human serum (not stated which), read-out: GLP1R EC50 human.

Data on seven molecules can be found in patent publication US11566057B2, “Long-acting co-agonists of the glucagon and GLP-1 receptors” (Merck Sharp & Dohme Corp., priority 2017, dated 2023).

The structures appear in SMILES notation. Where two headings read alike, the source gives them in different places. Numbered stars: 1 amine (or outer) side, 2 acyl side, 3 side chain; on linkers, the order of the positions; unused ones are H or OH. Square brackets hold non-standard residues; d marks the D form. Side chains are listed from the residue outwards. Peptide text beside a SMILES is read from it. * marks the point of attachment. Phe(4-CH2NH2) = NCc1ccc(C[C@H](N)C(=O)O)cc1; C18 diacid = O=C(O)CCCCCCCCCCCCCCCCC(=O)*; γGlu = O=C(O)[C@H](CCC(=O)[*:2])N[*:1]; Met(O2) = CS(=O)(=O)CC[C@H](N)C(=O)O; αMeD = C[C@](N)(CC(=O)O)C(=O)O; AEEA = NCCOCCOCC(=O)O; Aib = CC(C)(N)C(=O)O

T2 sequence (P47871 26-477): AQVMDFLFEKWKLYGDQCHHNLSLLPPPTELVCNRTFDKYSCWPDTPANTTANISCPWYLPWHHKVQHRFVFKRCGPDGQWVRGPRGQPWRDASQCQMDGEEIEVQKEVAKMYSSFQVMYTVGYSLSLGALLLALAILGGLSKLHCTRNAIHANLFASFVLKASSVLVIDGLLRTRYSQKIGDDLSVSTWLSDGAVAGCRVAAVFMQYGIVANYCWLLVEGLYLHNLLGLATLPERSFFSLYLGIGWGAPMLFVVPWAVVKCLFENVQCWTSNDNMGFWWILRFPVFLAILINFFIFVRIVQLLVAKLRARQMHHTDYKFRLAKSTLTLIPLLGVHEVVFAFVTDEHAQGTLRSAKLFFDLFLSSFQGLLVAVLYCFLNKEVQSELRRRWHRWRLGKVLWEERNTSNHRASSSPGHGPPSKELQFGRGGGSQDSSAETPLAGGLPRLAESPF
T1 sequence (P43220 24-463): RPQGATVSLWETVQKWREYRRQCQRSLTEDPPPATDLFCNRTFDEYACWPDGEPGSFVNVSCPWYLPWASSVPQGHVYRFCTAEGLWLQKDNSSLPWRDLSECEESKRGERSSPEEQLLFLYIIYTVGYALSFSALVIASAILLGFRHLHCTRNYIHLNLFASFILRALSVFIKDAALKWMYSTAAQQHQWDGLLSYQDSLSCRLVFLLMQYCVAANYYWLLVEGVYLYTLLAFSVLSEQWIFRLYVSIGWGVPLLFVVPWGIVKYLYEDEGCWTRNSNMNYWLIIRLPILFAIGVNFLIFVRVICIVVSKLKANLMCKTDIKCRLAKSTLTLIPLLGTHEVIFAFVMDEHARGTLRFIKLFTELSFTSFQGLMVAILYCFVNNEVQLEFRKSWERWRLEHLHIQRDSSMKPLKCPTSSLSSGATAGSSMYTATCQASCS

Turning to `CC(C)C[C@H](NC(=O)[C@H](Cc1ccc(O)cc1)NC(=O)[C@H](CCCCN)NC(=O)[C@H](CO)NC(=O)[C@H](Cc1ccc(O)cc1)NC(=O)[C@H](CC(=O)O)NC(=O)[C@H](CO)NC(=O)[C@@H](NC(=O)[C@H](Cc1ccccc1)NC(=O)[C@@H](NC(=O)CNC(=O)[C@H](CCC(N)=O)NC(=O)C(C)(C)NC(=O)[C@@H](N)Cc1c[nH]cn1)[C@@H](C)O)[C@@H](C)O)C(=O)N[C@@H](CC(=O)O)C(=O)N[C@@H](C)C(=O)N[C@@H](CCCNC(=N)N)C(=O)N[C@@H](C)C(=O)N[C@@H](C)C(=O)N[C@@H](CCC(N)=O)C(=O)N[C@@H](CC(=O)O)C(=O)N[C@@H](Cc1ccccc1)C(=O)N[C@H](C(=O)N[C@@H](Cc1ccc(CNC(=O)COCCOCCNC(=O)CC[C@H](NC(=O)CCCCCCCCCCCCCCCCC(=O)O)C(=O)O)cc1)C(=O)N[C@@H](Cc1c[nH]c2ccccc12)C(=O)N[C@@H](CC(C)C)C(=O)N[C@@H](CC(C)C)C(=O)N[C@@H](CC(=O)O)C(=O)N[C@H](C(N)=O)[C@@H](C)O)C(C)C` [TP638] (H-H[Aib]QGTFTSDYSKYLDARAAQDFV[Phe(4-CH2NH2)]([AEEA-γGlu-C18 diacid])WLLDT-NH2), the 50% effective concentration (EC50) on human GLP1R (setting [1]) and at human GCGR (setting [2]) was less than 5 nM each time. For the same molecule, the “hGCGR/hGLP1R (hTone)” value on human GCGR amounted to 3.3.
As for `CC(C)C[C@H](NC(=O)[C@H](Cc1ccc(O)cc1)NC(=O)[C@H](CCCCN)NC(=O)[C@H](CO)NC(=O)[C@H](Cc1ccc(O)cc1)NC(=O)[C@H](CC(=O)O)NC(=O)[C@H](CO)NC(=O)[C@@H](NC(=O)[C@H](Cc1ccccc1)NC(=O)[C@@H](NC(=O)CNC(=O)[C@H](CCC(N)=O)NC(=O)C(C)(C)NC(=O)[C@@H](N)Cc1c[nH]cn1)[C@@H](C)O)[C@@H](C)O)C(=O)N[C@@H](CC(=O)O)C(=O)N[C@@H](C)C(=O)N[C@@H](CCCNC(=N)N)C(=O)N[C@@H](C)C(=O)N[C@@H](C)C(=O)N[C@@H](CCCCNC(=O)COCCOCCNC(=O)COCCOCCNC(=O)CC[C@H](NC(=O)CCCCCCCCCCCCCCCCC(=O)O)C(=O)O)C(=O)N[C@@H](CC(=O)O)C(=O)N[C@@H](Cc1ccccc1)C(=O)N[C@H](C(=O)N[C@@H](CCC(N)=O)C(=O)N[C@@H](Cc1c[nH]c2ccccc12)C(=O)N[C@@H](CC(C)C)C(=O)N[C@@H](CCS(C)(=O)=O)C(=O)N[C@@H](CCC(=O)O)C(=O)N[C@H](C(N)=O)[C@@H](C)O)C(C)C` [TP672] (H-H[Aib]QGTFTSDYSKYLDARAAK([AEEA-AEEA-γGlu-C18 diacid])DFVQWL[Met(O2)]ET-NH2; N-terminus assumed), the concentration giving a half-maximal response (EC50) on human GLP1R (setting [1]) was less than 5 nM; on human GCGR (setting [3]), 0.35 nM; at human GCGR (setting [2]), less than 5 nM. For the same molecule, the “hGCGR/hGLP1R (hTone)” value on human GCGR was determined as 0.7.
With `CC(C)C[C@H](NC(=O)[C@H](Cc1c[nH]c2ccccc12)NC(=O)[C@H](CCC(N)=O)NC(=O)[C@@H](NC(=O)[C@H](Cc1ccccc1)NC(=O)[C@H](CC(=O)O)NC(=O)[C@H](CCCCNC(=O)COCCOCCNC(=O)COCCOCCNC(=O)CC[C@H](NC(=O)CCCCCCCCCCCCCCCCC(=O)O)C(=O)O)NC(=O)[C@H](C)NC(=O)[C@H](C)NC(=O)[C@H](CCCNC(=N)N)NC(=O)C(C)(C)NC(=O)[C@H](CC(=O)O)NC(=O)[C@H](CC(C)C)NC(=O)[C@H](Cc1ccc(O)cc1)NC(=O)[C@H](CCCCN)NC(=O)[C@H](CO)NC(=O)[C@H](Cc1ccc(O)cc1)NC(=O)[C@H](CC(=O)O)NC(=O)[C@H](CO)NC(=O)[C@@H](NC(=O)[C@H](Cc1ccccc1)NC(=O)[C@@H](NC(=O)CNC(=O)[C@H](CCC(N)=O)NC(=O)C(C)(C)NC(=O)[C@@H](N)Cc1c[nH]cn1)[C@@H](C)O)[C@@H](C)O)C(C)C)C(=O)N[C@@H](CCS(C)(=O)=O)C(=O)N[C@@H](CCC(=O)O)C(=O)N[C@H](C(N)=O)[C@@H](C)O` [TP673] (H-H[Aib]QGTFTSDYSKYLD[Aib]RAAK([AEEA-AEEA-γGlu-C18 diacid])DFVQWL[Met(O2)]ET-NH2; N-terminus assumed), the EC50 on human GLP1R (setting [1]) is less than 5 nM; at human GCGR (setting [3]), 0.22 nM; on human GCGR (setting [2]), less than 5 nM. Besides, at human GCGR, the “hGCGR/hGLP1R (hTone)” value turned out to be 0.3.
For `CC(C)C[C@H](NC(=O)[C@H](Cc1ccc(O)cc1)NC(=O)[C@H](CCCCN)NC(=O)[C@H](CO)NC(=O)[C@H](Cc1ccc(O)cc1)NC(=O)[C@H](CC(=O)O)NC(=O)[C@H](CO)NC(=O)[C@@H](NC(=O)[C@H](Cc1ccccc1)NC(=O)[C@@H](NC(=O)CNC(=O)[C@H](CCC(N)=O)NC(=O)C(C)(C)NC(=O)[C@@H](N)Cc1c[nH]cn1)[C@@H](C)O)[C@@H](C)O)C(=O)N[C@@H](CCC(=O)O)C(=O)N[C@@H](C)C(=O)N[C@@H](CCCNC(=N)N)C(=O)N[C@@H](C)C(=O)N[C@@H](C)C(=O)N[C@@H](CCCCNC(=O)COCCOCCNC(=O)COCCOCCNC(=O)CC[C@H](NC(=O)CCCCCCCCCCCCCCCCC(=O)O)C(=O)O)C(=O)N[C@@H](CC(=O)O)C(=O)N[C@@H](Cc1ccccc1)C(=O)N[C@H](C(=O)N[C@@H](CCC(N)=O)C(=O)N[C@@H](Cc1c[nH]c2ccccc12)C(=O)N[C@@H](CC(C)C)C(=O)N[C@@H](CCS(C)(=O)=O)C(=O)N[C@@H](CC(=O)O)C(=O)N[C@H](C(N)=O)[C@@H](C)O)C(C)C` [TP674] (H-H[Aib]QGTFTSDYSKYLEARAAK([AEEA-AEEA-γGlu-C18 diacid])DFVQWL[Met(O2)]DT-NH2; N-terminus assumed), the EC50 at human GLP1R (setting [4]) was 0.45 nM; on human GLP1R (setting [1]) it was less than 5 nM; at human GCGR (setting [2]), less than 5 nM. Also, the “hGCGR/hGLP1R (hTone)” value at human GCGR is given as 2.4.
Consider `CC(C)C[C@H](NC(=O)[C@H](Cc1c[nH]c2ccccc12)NC(=O)[C@H](CCCCNC(=O)COCCOCCNC(=O)COCCOCCNC(=O)CC[C@H](NC(=O)CCCCCCCCCCCCCCCCC(=O)O)C(=O)O)NC(=O)[C@@H](NC(=O)[C@H](Cc1ccccc1)NC(=O)[C@H](CC(=O)O)NC(=O)[C@H](CCC(N)=O)NC(=O)[C@H](C)NC(=O)[C@H](C)NC(=O)[C@H](CCCNC(=N)N)NC(=O)C(C)(C)NC(=O)[C@H](CC(=O)O)NC(=O)[C@H](CC(C)C)NC(=O)[C@H](Cc1ccc(O)cc1)NC(=O)[C@H](CCCCN)NC(=O)[C@H](CO)NC(=O)[C@H](Cc1ccc(O)cc1)NC(=O)[C@H](CC(=O)O)NC(=O)[C@H](CO)NC(=O)[C@@H](NC(=O)[C@H](Cc1ccccc1)NC(=O)[C@@H](NC(=O)CNC(=O)[C@H](CCC(N)=O)NC(=O)C(C)(C)NC(=O)[C@@H](N)Cc1c[nH]cn1)[C@@H](C)O)[C@@H](C)O)C(C)C)C(=O)N[C@@H](CCS(C)(=O)=O)C(=O)N[C@@H](CCC(=O)O)C(=O)N[C@H](C(N)=O)[C@@H](C)O` [TP675] (H-H[Aib]QGTFTSDYSKYLD[Aib]RAAQDFVK([AEEA-AEEA-γGlu-C18 diacid])WL[Met(O2)]ET-NH2), for which the half-maximal effective concentration (EC50) at human GLP1R (setting [4]) is 0.71 nM; at human GLP1R (setting [1]), less than 5 nM; on human GCGR (setting [2]), less than 5 nM. In addition, the “hGCGR/hGLP1R (hTone)” value on human GCGR was determined as 0.4.
On to `CC(C)C[C@H](NC(=O)[C@H](Cc1ccc(O)cc1)NC(=O)[C@H](CCCCN)NC(=O)[C@H](CO)NC(=O)[C@H](Cc1ccc(O)cc1)NC(=O)[C@H](CC(=O)O)NC(=O)[C@H](CO)NC(=O)[C@@H](NC(=O)[C@H](Cc1ccccc1)NC(=O)[C@@H](NC(=O)CNC(=O)[C@H](CCC(N)=O)NC(=O)C(C)(C)NC(=O)[C@@H](N)Cc1c[nH]cn1)[C@@H](C)O)[C@@H](C)O)C(=O)N[C@@H](CC(=O)O)C(=O)N[C@@H](C)C(=O)N[C@@H](CCCNC(=N)N)C(=O)N[C@@H](C)C(=O)N[C@@H](C)C(=O)N[C@@H](CCCCNC(=O)COCCOCCNC(=O)COCCOCCNC(=O)COCCOCCNC(=O)CC[C@H](NC(=O)CCCCCCCCCCCCCCCCC(=O)O)C(=O)O)C(=O)N[C@@H](CC(=O)O)C(=O)N[C@@H](Cc1ccccc1)C(=O)N[C@H](C(=O)N[C@@H](CCC(N)=O)C(=O)N[C@@H](Cc1c[nH]c2ccccc12)C(=O)N[C@@H](CC(C)C)C(=O)N[C@@H](CCS(C)(=O)=O)C(=O)N[C@@H](CC(=O)O)C(=O)N[C@H](C(N)=O)[C@@H](C)O)C(C)C` [TP676] (H-H[Aib]QGTFTSDYSKYLDARAAK([AEEA-AEEA-AEEA-γGlu-C18 diacid])DFVQWL[Met(O2)]DT-NH2; N-terminus assumed), for which the concentration for a half-maximal effect (EC50) at human GLP1R (setting [4]) is 0.26 nM; on human GLP1R (setting [1]), less than 5 nM; on human GCGR (setting [2]), less than 5 nM. Also, the “hGCGR/hGLP1R (hTone)” value at human GCGR is given as 3.1.
On to `CC(C)C[C@H](NC(=O)[C@H](Cc1ccc(O)cc1)NC(=O)[C@H](CCCCN)NC(=O)[C@H](CO)NC(=O)[C@H](Cc1ccc(O)cc1)NC(=O)[C@H](CC(=O)O)NC(=O)[C@H](CO)NC(=O)[C@@H](NC(=O)[C@H](Cc1ccccc1)NC(=O)[C@@H](NC(=O)CNC(=O)[C@H](CCC(N)=O)NC(=O)C(C)(C)NC(=O)[C@@H](N)Cc1c[nH]cn1)[C@@H](C)O)[C@@H](C)O)C(=O)N[C@@H](CC(=O)O)C(=O)N[C@@H](C)C(=O)N[C@@H](CCCNC(=N)N)C(=O)N[C@@H](C)C(=O)N[C@@H](C)C(=O)N[C@@H](CCCCNC(=O)COCCOCCNC(=O)COCCOCCNC(=O)COCCOCCNC(=O)CC[C@H](NC(=O)CCCCCCCCCCCCCCCCC(=O)O)C(=O)O)C(=O)N[C@@H](CC(=O)O)C(=O)N[C@@H](Cc1ccccc1)C(=O)N[C@H](C(=O)N[C@@H](CCC(N)=O)C(=O)N[C@@H](Cc1c[nH]c2ccccc12)C(=O)N[C@@H](CC(C)C)C(=O)N[C@@H](CCS(C)(=O)=O)C(=O)N[C@@](C)(CC(=O)O)C(=O)N[C@H](C(N)=O)[C@@H](C)O)C(C)C` [TP677] (H-H[Aib]QGTFTSDYSKYLDARAAK([AEEA-AEEA-AEEA-γGlu-C18 diacid])DFVQWL[Met(O2)][αMeD]T-NH2; N-terminus assumed), for which the EC50 on human GLP1R (setting [4]) was 0.76 nM; at human GLP1R (setting [1]), less than 5 nM; at human GCGR (setting [2]), less than 5 nM. On human GCGR, the “hGCGR/hGLP1R (hTone)” value is listed as 1.9.

As a reminder, the EC50 is the concentration at which the effect is half-maximal.
